Reference: PubChem BioAssay AID248 (DTP/NCI, 2004)
“And” between values parts separate entries of the source, which are not always exact repeats. Equal values may be shown once. Toxic doses and inconclusive results are not listed. Rule as the data show it: active = T/C of 150% or more; inactive = T/C below 125%.

Test system: L1210 leukemia ip in BDF1 mice, survival T/C
Assay: NCI In Vivo Anticancer Drug Screen. Data for tumor model L1210 Leukemia (intraperitoneal) in B6D2F1 (BDF1) mice
Details: endpoint: mean survival time, higher = longer survival
Method in brief: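 Survival endpoint. Drug-treated group vs vehicle group, expressed as T divided by C. Tumor passaged by transplantation.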

[1] = dose: 50.0 mg/kg/injection, schedule: Q01DX001 (ip), vehicle: saline
[2] = dose: 100.0 mg/kg/injection, schedule: Q01DX001 (ip), vehicle: saline
[3] = dose: 200.0 mg/kg/injection, schedule: Q01DX001 (ip), vehicle: saline
[4] = dose: 400.0 mg/kg/injection, schedule: Q01DX001 (ip), vehicle: saline
[5] = dose: 75.0 mg/kg/injection, schedule: Q01DX001 (ip), vehicle: saline
[6] = dose: 150.0 mg/kg/injection, schedule: Q01DX001 (ip), vehicle: saline
[7] = dose: 300.0 mg/kg/injection, schedule: Q01DX001 (ip), vehicle: saline
[8] = dose: 12.5 mg/kg/injection, schedule: Q04DX003 (ip), vehicle: saline with Tween-80
[9] = dose: 25.0 mg/kg/injection, schedule: Q04DX003 (ip), vehicle: saline with Tween-80
[10] = dose: 100.0 mg/kg/injection, schedule: Q01DX001 (ip), vehicle: carboxymethylcellulose (CMC)
[11] = dose: 200.0 mg/kg/injection, schedule: Q01DX001 (ip), vehicle: carboxymethylcellulose (CMC)
[12] = dose: 400.0 mg/kg/injection, schedule: Q01DX001 (ip), vehicle: carboxymethylcellulose (CMC)
[13] = dose: 100.0 mg/kg/injection, schedule: Q01DX009 (ip), vehicle: saline
[14] = dose: 100.0 mg/kg/injection, schedule: Q04DX003 (ip), vehicle: saline
[15] = dose: 200.0 mg/kg/injection, schedule: Q01DX009 (ip), vehicle: saline
[16] = dose: 200.0 mg/kg/injection, schedule: Q04DX003 (ip), vehicle: saline
[17] = dose: 100.0 mg/kg/injection, schedule: Q01DX009 (ip), vehicle: Klucel (hydroxypropylcellulose) (HPC)
[18] = dose: 200.0 mg/kg/injection, schedule: Q01DX009 (ip), vehicle: Klucel (hydroxypropylcellulose) (HPC)
[19] = dose: 400.0 mg/kg/injection, schedule: Q01DX009 (ip), vehicle: Klucel (hydroxypropylcellulose) (HPC)
[20] = dose: 50.0 mg/kg/injection, schedule: Q01DX009 (ip), vehicle: saline

Measured: T/C

Cc1c(C)c(NC(=O)/C=C/C(=O)O)c(C)c(C)c1NC(=O)/C=C\C(=O)O
inactive: dose: 100.0 mg/kg/injection, schedule: Q01DX009 (ip), vehicle: saline with Tween-80 104 % of control | dose: 200.0 mg/kg/injection, schedule: Q01DX009 (ip), vehicle: saline with Tween-80 96 % of control | dose: 400.0 mg/kg/injection, schedule: Q01DX009 (ip), vehicle: saline with Tween-80 102 % of control

Nc1nc(=O)n(C2CC(O)C(CO)O2)cc1F (configuration not stated)
inactive: dose: 30.0 mg/kg/injection, schedule: Q01DX Z (ip), vehicle: saline 105 % of control

O=[N+]([O-])c1ccc(CS(=O)(=O)Cc2ccc([N+](=O)[O-])cc2)cc1
inactive: dose: 150.0 mg/kg/injection, schedule: Q01DX001 (ip), vehicle: carboxymethylcellulose (CMC) 93 % of control | dose: 300.0 mg/kg/injection, schedule: Q01DX001 (ip), vehicle: carboxymethylcellulose (CMC) 89 % of control

Cn1c(=O)c(-c2ccccc2)[n+]([O-])c2ccccc21
inactive: [1] 104 % of control | [2] 101 % of control | [3] 101 % of control | [4] 101 % of control

CCC1(C2=CCCCC2)C(=O)NC(=S)NC1=O
inactive: [5] 102 % of control | [6] 106 % of control | [7] 104 % of control

COC1OC(COC(c2ccccc2)(c2ccccc2)c2ccccc2)C2OC12 (configuration not stated)
inactive: [2] 94 % of control | [3] 103 % of control | [4] 97 % of control

Nc1nc(CCCCc2ccc(NC(=O)CBr)cc2)c(CCCCc2ccccc2)c(=O)[nH]1
inactive: dose: 6.25 mg/kg/injection, schedule: Q04DX003 (ip), vehicle: saline with Tween-80 96 % of control | [8] 105 % of control | [9] 102 % of control and 110 % of control | [1] 108 % of control | dose: 100.0 mg/kg/injection, schedule: Q04DX003 (ip), vehicle: saline with Tween-80 91 % of control

Brc1cccc2c(I)cccc12
inactive: [10] 95 % of control | [11] 98 % of control | [12] 92 % of control

O=Cc1ccsc1
inactive: dose: 100.0 mg/kg/injection, schedule: Q04DX002 (ip), vehicle: saline with Tween-80 90 % of control | dose: 200.0 mg/kg/injection, schedule: Q04DX002 (ip), vehicle: saline with Tween-80 97 % of control | dose: 400.0 mg/kg/injection, schedule: Q04DX002 (ip), vehicle: saline with Tween-80 101 % of control

CC(=O)N/N=C(/C)C(=O)O
inactive: dose: 50.0 mg/kg/injection, schedule: Q01DX009 (ip), vehicle: water 100 % of control | dose: 100.0 mg/kg/injection, schedule: Q01DX009 (ip), vehicle: water 100 % of control | dose: 100.0 mg/kg/injection, schedule: Q04DX003 (ip), vehicle: water 97 % of control | dose: 200.0 mg/kg/injection, schedule: Q04DX003 (ip), vehicle: water 106 % of control

OCCNCc1ccc2ccccc2n1
inactive: dose: 75.0 mg/kg/injection, schedule: Q04DX003 (ip), vehicle: saline 96 % of control | dose: 150.0 mg/kg/injection, schedule: Q04DX003 (ip), vehicle: saline 100 % of control | dose: 300.0 mg/kg/injection, schedule: Q04DX003 (ip), vehicle: saline 96 % of control

CSc1nc(-c2cccs2)cc(C(F)(F)F)n1
inactive: dose: 100.0 mg/kg/injection, schedule: Q04DX003 (ip), vehicle: gum acacia 97 % of control | dose: 200.0 mg/kg/injection, schedule: Q04DX003 (ip), vehicle: gum acacia 100 % of control | dose: 400.0 mg/kg/injection, schedule: Q04DX003 (ip), vehicle: gum acacia 102 % of control

COC(=O)C1CCN1C(C)(C)C (configuration not stated)
inactive: [13] 95 % of control | [14] 111 % of control | [15] 95 % of control | [16] 105 % of control | dose: 400.0 mg/kg/injection, schedule: Q01DX009 (ip), vehicle: saline 103 % of control | dose: 400.0 mg/kg/injection, schedule: Q04DX003 (ip), vehicle: saline 110 % of control

Nc1ccc(N)c2c1C(=O)c1cccc([N+](=O)[O-])c1C2=O
inactive: dose: 50.0 mg/kg/injection, schedule: Q01DX001 (ip), vehicle: carboxymethylcellulose (CMC) 101 % of control | [10] 97 % of control | [11] 95 % of control | [12] 95 % of control

O=c1[nH]nnc2c1nc(Cc1ccc([N+](=O)[O-])cc1)n2Cc1ccccc1
inactive: dose: 100.0 mg/kg/injection, schedule: Q01DX001 (ip), vehicle: saline with Tween-80 102 % of control | dose: 200.0 mg/kg/injection, schedule: Q01DX001 (ip), vehicle: saline with Tween-80 86 % of control | dose: 400.0 mg/kg/injection, schedule: Q01DX001 (ip), vehicle: saline with Tween-80 100 % of control

O=C(Nc1ccc2ccccc2c1)c1ccccc1Cl
inactive: [17] 93 % of control | [18] 101 % of control | [19] 101 % of control

CC(=O)c1c(C)c(C)cc(C)c1C
inactive: [17] 110 % of control | dose: 100.0 mg/kg/injection, schedule: Q04DX003 (ip), vehicle: Klucel (hydroxypropylcellulose) (HPC) 96 % of control | [18] 97 % of control | dose: 200.0 mg/kg/injection, schedule: Q04DX003 (ip), vehicle: Klucel (hydroxypropylcellulose) (HPC) 103 % of control | [19] 111 % of control | dose: 400.0 mg/kg/injection, schedule: Q04DX003 (ip), vehicle: Klucel (hydroxypropylcellulose) (HPC) 103 % of control

CC(C)=CCC(=O)NCC(CCN1CCCCC1)(c1cccc2ccccc12)C(C)C (configuration not stated)
inactive: [8] 96 % of control | [9] 88 % of control | dose: 50.0 mg/kg/injection, schedule: Q01DX003 (ip), vehicle: saline with Tween-80 88 % of control | dose: 50.0 mg/kg/injection, schedule: Q04DX003 (ip), vehicle: saline with Tween-80 92 % of control | [17] 90 % of control | [18] 90 % of control

O=C(O)c1cc(Cl)c(Cl)cc1Cl
inactive: [20] 104 % of control | [2] 93 % of control | [13] 98 % of control | [14] 100 % of control | [3] 86 % of control | [16] 102 % of control | [4] 94 % of control

COc1ccc(Cl)cc1NC(=O)c1cccc([N+](=O)[O-])c1
inactive: [17] 98 % of control | [18] 98 % of control | [19] 102 % of control

CN(C)c1ccc(C=Nc2ccc(N(C)C)cc2)cc1
inactive: [10] 105 % of control | dose: 100.0 mg/kg/injection, schedule: Q01DX009 (ip), vehicle: carboxymethylcellulose (CMC) 96 % of control and 92 % of control | dose: 100.0 mg/kg/injection, schedule: Q04DX002 (ip), vehicle: carboxymethylcellulose (CMC) 102 % of control and 104 % of control | dose: 100.0 mg/kg/injection, schedule: Q04DX003 (ip), vehicle: carboxymethylcellulose (CMC) 102 % of control | [11] 93 % of control | dose: 200.0 mg/kg/injection, schedule: Q01DX009 (ip), vehicle: carboxymethylcellulose (CMC) 86 % of control and 88 % of control | dose: 200.0 mg/kg/injection, schedule: Q04DX002 (ip), vehicle: carboxymethylcellulose (CMC) 98 % of control and 105 % of control | dose: 200.0 mg/kg/injection, schedule: Q04DX003 (ip), vehicle: carboxymethylcellulose (CMC) 92 % of control | [12] 88 % of control | dose: 400.0 mg/kg/injection, schedule: Q01DX009 (ip), vehicle: carboxymethylcellulose (CMC) 86 % of control and 92 % of control | dose: 400.0 mg/kg/injection, schedule: Q04DX002 (ip), vehicle: carboxymethylcellulose (CMC) 97 % of control and 100 % of control | dose: 400.0 mg/kg/injection, schedule: Q04DX003 (ip), vehicle: carboxymethylcellulose (CMC) 92 % of control

CCOC(=N)c1ccc(P(=O)(O)O)cc1
inactive: [5] 97 % of control | [6] 96 % of control | [7] 102 % of control

COc1ccc(OC(=O)Nc2cc([N+](=O)[O-])ccc2OC)cc1
inactive: dose: 25.0 mg/kg/injection, schedule: Q01DX009 (ip), vehicle: Klucel (hydroxypropylcellulose) (HPC) 89 % of control | dose: 50.0 mg/kg/injection, schedule: Q01DX009 (ip), vehicle: Klucel (hydroxypropylcellulose) (HPC) 96 % of control | [17] 88 % of control | [18] 88 % of control

O=C1CC(C(=O)O)c2ccccc21 (configuration not stated)
inactive: [20] 93 % of control | [13] 90 % of control | [15] 93 % of control
